Source: US20250041282A1, “METHOD FOR TREATING INFLAMMATORY PULMONARY DISEASE” (FU JEN CATHOLIC UNIVERSITY, priority 2021, published 2025)

Columns and labels:
RAW264.7 macrophages = test: Quantitative real-time PCR of inflammatory mediators and cytokines; type: cell-based, mouse; details: LPS-induced
Experimental: RNA was isolated from cells using TRIzol reagent (Invitrogen, Carlsbad, CA, USA) as previously described.^32 The concentration of the isolated RNA was measured using an Epoch microplate spectrophotometer (BioTek, Winooski, VT, USA). One microgram of RNA was reverse-transcribed to cDNA with random primers and an MMLV RT kit (Epicenter Biotechnologies, Madison, WI, USA). The mixture (2 μl) was added to PCR reagents to measure the target mRNA level with specific primers (Table 1). All real-time PCRs were performed in a volume of 20 μl containing 10 μl of Real-time PCR SYBR Green master mix (Toyobo, Osaka, Japan) using a PikoReal 96 Real-Time PCR System (Thermo Fisher Scientific Inc.), according to our previously described method.^33 The expression of β-actin was used as an internal control for RNA quantification.

[1] = test system: C57BL/6 mice with LPS-induced systemic inflammation; test: Histological examination of lung specimens (H&E); type: in vivo, mouse; details: FJU-C28 5 mg/kg, LPS 7.5 mg/kg, FIG. 12A
Experimental: Ten-week-old male C57BL/6 mice from BioLasco Taiwan Co., Ltd. (Taipei, Taiwan) were used in the present study. The mice were maintained under standard laboratory conditions as described in a previous study.^34 All animal procedures were approved by the Institutional Animal Care and Use Committee of Fu Jen Catholic University (IACUC approval number: A10508). We also confirmed that all experiments were performed in compliance with the ARRIVE guidelines. All surgeries were performed under anesthesia, and all efforts were made to minimize the pain and discomfort of the animals. The mice were randomly assigned to three groups: control (n=7), LPS (n=7) and LPS plus C28 (n=8). […] The detailed procedure was performed as described in a previous study.^34 The lung function values, including C chord (lung compliance), IC (inspiratory capacity), VC (vital capacity), FEV100 (forced expiratory volume at 100 ms) and FVC (forced vital capacity), were measured using a Buxco Research System. […]
To evaluate the protective effect of FJU-C28 on lung function in mice with systemic inflammation induced by endotoxin, male C57BL/6 mice were administered LPS (7.5 mg/kg) and treated with/without FJU-C28 (5 mg/kg) for 24 hours; subsequently, lung function parameters were measured using a Buxco pulmonary function test system. […]

[2] = concentration less than 10 μM, FIG. 2

C=CCC1CC(Sc2ccccc2)=CC(=O)N1C(=O)C=C (centres unmarked) [FJU-C28]
mRNA level of COX2 (RAW264.7 macrophages; FIG. 2): downregulated in a concentration-dependent manner
mRNA level of iNOS (RAW264.7 macrophages; FIG. 2): downregulated in a concentration-dependent manner
mRNA level of IL-1β (RAW264.7 macrophages; [2]): concentration-dependently decreased
mRNA level of IL-6 (RAW264.7 macrophages; [2]): concentration-dependently decreased
gene expression of IL-6 (RAW264.7 macrophages; dose higher than 5 μM): noticeably inhibited
gene expression of iNOS (RAW264.7 macrophages; dose higher than 5 μM): noticeably inhibited
alveolar structure in lung tissue [1]: sustained most of the alveolar structure
neutrophil infiltration in the interstitium of the lung [1]: reduced the neutrophil infiltration in the interstitium
